{"source": "ChEMBL document CHEMBL5226289", "about": "“Discovery of natural anti-inflammatory alkaloids: Potential leads for the drug discovery for the treatment of inflammation” (Eur J Med Chem, 2021)", "key": {"Mus musculus [1]": {"tested_on": "Mus musculus", "test": "Antiinflammatory activity in mouse assessed as inhibition of xylene-induced ear edema at 10 mg/kg, IG pre-treated for 30 mins followed by xylene administration and measured after 1 hrs relative to control", "format": "functional", "conditions": "po, time 1.5 hrs"}, "[2]": {"biological_target": "T1, Polyunsaturated fatty acid 5-lipoxygenase (Homo sapiens) (UniProt P09917)", "T1 sequence (whole entry)": "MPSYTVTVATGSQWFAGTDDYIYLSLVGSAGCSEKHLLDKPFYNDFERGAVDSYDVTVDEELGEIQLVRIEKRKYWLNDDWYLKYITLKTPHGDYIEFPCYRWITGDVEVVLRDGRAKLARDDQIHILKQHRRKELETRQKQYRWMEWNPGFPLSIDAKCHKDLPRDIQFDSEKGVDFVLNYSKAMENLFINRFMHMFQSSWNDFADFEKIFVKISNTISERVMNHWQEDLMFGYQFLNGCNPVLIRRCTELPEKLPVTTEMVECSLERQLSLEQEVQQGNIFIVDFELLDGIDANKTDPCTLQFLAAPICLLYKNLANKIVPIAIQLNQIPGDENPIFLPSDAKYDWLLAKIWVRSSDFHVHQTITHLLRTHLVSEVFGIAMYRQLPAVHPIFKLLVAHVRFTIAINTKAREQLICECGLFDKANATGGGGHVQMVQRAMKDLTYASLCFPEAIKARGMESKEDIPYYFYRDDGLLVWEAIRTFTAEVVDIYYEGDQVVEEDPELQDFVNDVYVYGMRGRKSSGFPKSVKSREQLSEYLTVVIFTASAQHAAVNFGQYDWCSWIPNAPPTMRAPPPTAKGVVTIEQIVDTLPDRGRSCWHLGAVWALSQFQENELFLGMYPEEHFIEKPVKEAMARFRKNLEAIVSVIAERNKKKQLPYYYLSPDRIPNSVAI", "test": "Inhibition of 5-LOX (unknown origin) at 100 uM measured after 5 mins by colorimetric method relative to control"}, "RAW264.7 [3]": {"tested_on": "RAW264.7", "test": "Inhibition of NO production in LPS-stimulated mouse RAW264.7 cells preincubated with compound for 1 hrs followed by LPS stimulation and measured after 24 hrs by Griess reagent-based assay", "format": "functional, cell-based"}, "[4]": {"test": "Antiinflammatory activity in rat polymorphonuclear leucocyte cells assessed as inhibition of PAF-induced beta-glucuronidase release at 10 uM preincubated for 20 mins followed by PAF addition relative to control", "format": "functional"}, "RAW264.7 [5]": {"tested_on": "RAW264.7", "test": "Antiinflammatory activity against LPS-stimulated mouse RAW264.7 cells assessed as reduction in iNOS protein expression at 10 uM relative to control", "format": "functional", "set-up": "scale not given: the % may be the effect or the level left"}, "RAW264.7 [6]": {"tested_on": "RAW264.7", "test": "Antiinflammatory activity against LPS-stimulated mouse RAW264.7 cells assessed as reduction in COX-2 protein expression at 10 uM relative to control", "format": "functional", "set-up": "scale not given: the % may be the effect or the level left"}, "Mus musculus [7]": {"tested_on": "Mus musculus", "test": "Antiinflammatory activity in mouse assessed as inhibition of xylene-induced ear edema at 8 mg/kg, ip pre-treated for 30 mins followed by xylene administration and measured after 1 hrs relative to control", "format": "functional", "conditions": "time 1.5 hrs"}, "RAW264.7 [8]": {"tested_on": "RAW264.7", "test": "Inhibition of NO production in LPS-stimulated mouse RAW264.7 cells preincubated with compound for 3 hrs followed by LPS stimulation and measured after 20 hrs by Griess reagent-based assay", "format": "functional, cell-based"}, "[9]": {"test": "Inhibition of TNF-alpha production in LPS-stimulated human PBMC cells", "format": "functional, cell-based"}, "[10]": {"test": "Inhibition of IL6 production in LPS-stimulated human PBMC cells", "format": "functional, cell-based"}, "[11]": {"biological_target": "Prostaglandin G/H synthase 1 (Homo sapiens, UniProt P23219)", "sequence (P23219 whole entry)": "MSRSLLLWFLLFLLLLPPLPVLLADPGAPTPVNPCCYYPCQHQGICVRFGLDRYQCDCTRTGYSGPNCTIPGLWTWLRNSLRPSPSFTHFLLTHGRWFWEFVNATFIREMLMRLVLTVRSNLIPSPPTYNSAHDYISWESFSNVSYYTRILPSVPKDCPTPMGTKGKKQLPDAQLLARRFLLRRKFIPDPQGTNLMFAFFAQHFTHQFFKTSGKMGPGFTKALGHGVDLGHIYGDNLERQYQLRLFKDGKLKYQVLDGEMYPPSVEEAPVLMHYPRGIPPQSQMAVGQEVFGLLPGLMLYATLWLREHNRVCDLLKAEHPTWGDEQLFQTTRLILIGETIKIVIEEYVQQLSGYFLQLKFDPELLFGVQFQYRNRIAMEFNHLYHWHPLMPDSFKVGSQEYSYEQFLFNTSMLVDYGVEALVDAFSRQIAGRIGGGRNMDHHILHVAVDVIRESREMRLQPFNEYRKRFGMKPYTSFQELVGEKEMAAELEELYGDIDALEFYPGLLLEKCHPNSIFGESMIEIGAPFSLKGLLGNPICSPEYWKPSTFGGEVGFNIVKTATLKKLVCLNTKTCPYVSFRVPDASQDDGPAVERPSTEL", "test": "Inhibition of COX-1 (unknown origin) by colorimetric analysis"}, "[12]": {"biological_target": "T2, Prostaglandin G/H synthase 2 (Homo sapiens, UniProt P35354)", "T2 sequence (P35354 whole entry)": "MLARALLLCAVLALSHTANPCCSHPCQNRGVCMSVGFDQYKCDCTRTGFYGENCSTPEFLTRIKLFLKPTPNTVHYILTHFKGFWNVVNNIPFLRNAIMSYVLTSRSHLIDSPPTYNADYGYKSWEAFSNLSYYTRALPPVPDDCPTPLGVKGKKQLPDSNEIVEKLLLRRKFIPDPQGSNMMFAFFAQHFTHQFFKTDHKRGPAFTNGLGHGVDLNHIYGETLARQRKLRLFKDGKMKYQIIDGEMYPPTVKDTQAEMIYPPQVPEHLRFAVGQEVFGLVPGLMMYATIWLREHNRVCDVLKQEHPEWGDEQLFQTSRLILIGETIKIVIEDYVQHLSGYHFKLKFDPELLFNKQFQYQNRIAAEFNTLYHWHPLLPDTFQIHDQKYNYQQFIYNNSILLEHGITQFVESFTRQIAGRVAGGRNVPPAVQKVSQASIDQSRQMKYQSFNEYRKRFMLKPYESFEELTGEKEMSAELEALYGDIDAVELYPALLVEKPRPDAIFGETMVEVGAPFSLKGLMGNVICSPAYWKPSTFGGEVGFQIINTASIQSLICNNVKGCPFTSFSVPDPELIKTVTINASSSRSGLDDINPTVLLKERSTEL", "test": "Inhibition of COX-2 (unknown origin) by colorimetric analysis"}, "RAW264.7 [13]": {"tested_on": "RAW264.7", "test": "Inhibition of NO production in LPS-stimulated mouse RAW264.7 cells preincubated with compound for 30 mins followed by LPS stimulation and measured after 24 hrs by Griess reagent-based assay", "format": "functional, cell-based"}, "Mus musculus [14]": {"tested_on": "Mus musculus", "test": "Antiinflammatory activity against capsaicin-induced ear edema Swiss albino mouse model assessed as inhibition of plasma extravasation at 100 umol/kg, po pre-treated with compound for 40 mins followed by capsaicin stimulation and measured after 30 mins relative to control", "format": "functional"}, "Mus musculus [15]": {"tested_on": "Mus musculus", "test": "Antiinflammatory activity in carrageenan-induced peritoneal Swiss albino mouse model assessed as decrease in number of leukocyte cells at 100 umol/kg, po pre-treated for 30 mins followed by carrageenan induction and measured after 4 hrs relative to control", "format": "functional", "set-up": "scale not given: the % may be the effect or the level left", "conditions": "dose 100 µmol/kg, time 4.5 hrs"}, "J774.1": {"tested_on": "J774.1", "test": "Inhibition of NO production in LPS-stimulated mouse J774.1 cells", "format": "functional, cell-based"}, "RAW264.7 [16]": {"tested_on": "RAW264.7", "test": "Antiinflammatory activity against mouse RAW264.7 cells assessed as inhibition of cell growth", "format": "functional, cell-based"}, "[17]": {"test": "Inhibition of NO production in LPS-stimulated mouse BV-2 cells preincubated with compound for 1 hrs followed by LPS stimulation and measured after 24 hrs by Griess reagent-based assay", "format": "functional, cell-based"}, "[18]": {"test": "Inhibition of LPS-induced NO production in mouse BV-2 cells […]", "format": "functional, cell-based"}, "RAW264.7 [19]": {"tested_on": "RAW264.7", "test": "Antiinflammatory activity in mouse RAW264.7 cells assessed as inhibition of LPS-stimulated iNOS activity preincubated with compound for 24 hrs followed by LPS stimulation for 2 hrs and measured 2 hrs after NADPH addition by fluorescence based assay", "format": "functional, cell-based"}, "Mus musculus [20]": {"tested_on": "Mus musculus", "test": "Prevention of LPS-induced mortality in C57BL/6 mouse model at 30 mg/kg, ip measured after 5 days relative to control", "format": "functional", "conditions": "time 5 day"}}, "note": "Residues, ends and D or L forms follow the SMILES beside them. *: point of attachment. Cbz = O=C(OCc1ccccc1)*"}
{"molecule": "C/C=C1/CN2[C@@H]3C[C@@]45c6ccccc6N[C@]4(O3)[C@@H]2C[C@@H]1[C@@H]5OC(C)=O", "values": [{"measurement": "inhibition in vivo at 10 mg/kg", "setting": "Mus musculus [1]", "value": 41.9, "unit": "%"}, {"measurement": "inhibition", "setting": "[2]", "value": 79.2, "unit": "%"}]}
{"molecule": "O=C1CC[C@H]2c3[nH]c4ccc(O)cc4c3CCN12", "values": [{"measurement": "IC50", "setting": "RAW264.7 [3]", "value": 25.2, "unit": "µM"}]}
{"molecule": "COC1O[C@H]([C@@H]2c3cc4c(cc3CCN2C)OCO4)c2ccc3c(c21)OCO3", "note": "(some centres undefined)", "values": [{"measurement": "inhibition at 10 µM", "setting": "[4]", "value": 32.4, "unit": "%"}]}
{"molecule": "CSc1[nH]c2cc(Br)c(Br)c(Br)c2c1SC", "values": [{"measurement": "Activity", "setting": "RAW264.7 [5]", "value": 2.8, "unit": "%"}, {"measurement": "Activity", "setting": "RAW264.7 [6]", "value": 1.6, "unit": "%"}]}
{"molecule": "C/C=C1/CN2CC[C@@H]1[C@@](CO)(C(=O)OC)c1[nH]c3ccccc3c1C2", "values": [{"measurement": "inhibition in vivo at 8 mg/kg", "setting": "Mus musculus [7]", "value": 40.3, "unit": "%"}, {"measurement": "inhibition", "setting": "[2]", "value": 60.8, "unit": "%"}]}
{"molecule": "C=C1C=C2C=C[C@H](OC)C[C@@]23c2cc4c(cc2[C@@H](O)CN13)OCO4", "values": [{"measurement": "IC50", "setting": "RAW264.7 [8]", "value": 3.4, "unit": "µg/mL"}]}
{"molecule": "COc1ccc2c(c1)[nH]c1c3c(c(C)cc12)OC(C)(C)C=C3", "values": [{"measurement": "IC50", "setting": "[9]", "value": 9.4, "unit": "µM"}, {"measurement": "IC50", "setting": "[10]", "value": 8.4, "unit": "µM"}]}
{"molecule": "CC(C)CC(=O)NC[C@H](O)CC[C@@H](CO)NC(=O)c1nc2ccccc2cc1O", "values": [{"measurement": "IC50", "setting": "[11]", "value": 7.6, "unit": "µM"}, {"measurement": "IC50", "setting": "[12]", "value": 2.1, "unit": "µM"}]}
{"molecule": "COc1c(O)ccc2c1cnc1c3cc4c(cc3ccc21)OCO4", "note": "[DECARINE]", "values": [{"measurement": "IC50", "setting": "RAW264.7 [13]", "value": 48.4, "unit": "µM"}]}
{"molecule": "COC(=O)/C1=C/c2c([nH]c3ccccc23)/C(C(=O)OC)=C\\c2c1[nH]c1ccccc21", "note": "[CAULERPIN]", "values": [{"measurement": "inhibition in vivo at 100 µmol/kg", "setting": "Mus musculus [14]", "value": 55.8, "unit": "%"}, {"measurement": "Activity", "setting": "Mus musculus [15]", "value": 48.3, "unit": "%"}]}
{"molecule": "COc1cc(C)cc2c1[nH]c1ccccc12", "note": "[MURRAYAFOLINE A]", "values": [{"measurement": "IC50", "setting": "[9]", "value": 7, "unit": "µM"}, {"measurement": "IC50", "setting": "[10]", "value": 8.4, "unit": "µM"}]}
{"molecule": "COC(=O)[C@@]1(O)C2=Nc3c(O)cccc3[C@@]23C[C@H]2C[C@]4(C(C)=O)ON2[C@H]3C[C@H]14", "values": [{"measurement": "IC50", "setting": "J774.1", "value": 49.2, "unit": "µM"}, {"measurement": "IC50", "setting": "RAW264.7 [16]", "value": 39.6, "unit": "µM"}]}
{"molecule": "COc1cc(/C=C/C(=O)CC(=O)/C=C/c2ccc(O)c(OC)c2)ccc1O", "note": "[CURCUMIN]", "values": [{"measurement": "IC50", "setting": "[17]", "value": 0.5, "unit": "µM"}, {"measurement": "IC50", "setting": "[18]", "value": 0.5, "unit": "µM"}]}
{"molecule": "CC(C)C[C@@H](C=O)NC(=O)[C@H](CC(C)C)NC(=O)[C@H](CC(C)C)NC(=O)OCc1ccccc1", "note": "[MG-132] (Cbz-Leu-Leu-Leu-aldehyde)", "values": [{"measurement": "IC50", "setting": "RAW264.7 [19]", "value": 0.2, "unit": "µM"}]}
{"molecule": "COc1ccc2c(c1)[nH]c1c(/C=C/C(=O)O)nccc12", "values": [{"measurement": "Activity", "setting": "Mus musculus [20]", "value": 12.5, "unit": "%"}]}
